Source: ChEMBL document CHEMBL1128887, “3-benzyl-quinolones: Novel, potent inhibitors of mammalian topoisomerase II” (Bioorg Med Chem Lett, 1995)

Key:
DNA topoisomerase II = DNA topoisomerase II (Homo sapiens, UniProt P11388+Q02880); assay: Inhibitory activity against HeLa cell Topoisomerase II; assay type: cell-based
P388 = assay: In vitro cytotoxicity against P388 mouse leukemia cells; assay type: functional, cell-based
Mus musculus [1] = assay: In vivo antitumor activity was measured as tumor growth inhibition in BDF1 male mice implanted with murine pancreatic adenocarcinoma (Panc 03) at dose schedule qd 3-11 administered iv; assay type: functional
Mus musculus [2] = assay: In vivo antitumor activity was measured as maximum tolerated dose in BDF1 male mice implanted with murine pancreatic adenocarcinoma (Panc 03) at dose schedule qd 3-11 administered iv; assay type: functional
Mus musculus [3] = assay: In vivo antitumor activity was measured as maximum tolerated dose in BDF1 male mice implanted with murine pancreatic adenocarcinoma (Panc 03) at dose schedule qd 3-9 administered sc; assay type: functional
Mus musculus [4] = assay: In vivo antitumor activity was measured as tumor growth inhibition in BDF1 male mice implanted with murine pancreatic adenocarcinoma (Panc 03) at dose schedule qd 3-9 administered sc; assay type: functional
Mus musculus [5] = assay: In vivo antitumor activity was measured as maximum tolerated dose in BDF1 male mice implanted with murine pancreatic adenocarcinoma (Panc 03) at dose schedule qd 4-11 administered iv; assay type: functional
Mus musculus [6] = assay: In vivo antitumor activity was measured as tumor growth inhibition in BDF1 male mice implanted with murine pancreatic adenocarcinoma (Panc 03) at dose schedule qd 4-11 administered iv; assay type: functional
Nucleic Acid = assay: Compound was evaluated for its activity against bacterial DNA gyrase; assay type: nucleic-acid assay, Bacteria
Mus musculus [7] = assay: In vivo antitumor activity was measured as tumor growth inhibition in BDF1 male mice implanted with murine pancreatic adenocarcinoma (Panc 03) at dose schedule qd 3,4,7,10 administered iv; assay type: functional
Mus musculus [8] = assay: In vivo antitumor activity was measured as maximum tolerated dose in BDF1 male mice implanted with murine pancreatic adenocarcinoma (Panc 03) at dose schedule qd 3,4,7,10 administered iv; assay type: functional
Mus musculus [9] = assay: In vivo antitumor activity was measured as tumor growth inhibition in BDF1 male mice implanted with murine pancreatic adenocarcinoma (Panc 03) at dose schedule qd 3, bid 4-9; sc bid 10,11 administered iv; assay type: functional
Mus musculus [10] = assay: In vivo antitumor activity was measured as maximum tolerated dose in BDF1 male mice implanted with murine pancreatic adenocarcinoma (Panc 03) at dose schedule qd 3, bid 4-9; sc bid 10,11 administered iv; assay type: functional
Mus musculus [11] = assay: In vivo antitumor activity was measured as maximum tolerated dose in BDF1 male mice implanted with murine pancreatic adenocarcinoma (Panc 03) at dose schedule qd 3-12 administered sc; assay type: functional
Mus musculus [12] = assay: In vivo antitumor activity was measured as tumor growth inhibition in BDF1 male mice implanted with murine pancreatic adenocarcinoma (Panc 03) at dose schedule qd 3-12 administered sc; assay type: functional
Mus musculus [13] = assay: In vivo antitumor activity was measured as tumor growth inhibition in BDF1 male mice implanted with murine pancreatic adenocarcinoma (Panc 03) at dose schedule qd 4-9 administered sc; assay type: functional
Mus musculus [14] = assay: In vivo antitumor activity was measured as maximum tolerated dose in BDF1 male mice implanted with murine pancreatic adenocarcinoma (Panc 03) at dose schedule qd 4-9 administered sc; assay type: functional
Mus musculus [15] = assay: In vivo antitumor activity was measured as maximum tolerated dose in BDF1 male mice implanted with murine pancreatic adenocarcinoma (Panc 03) at dose schedule qd 4,6,8,10,12,14,16 administered iv; assay type: functional
Mus musculus [16] = assay: In vivo antitumor activity was measured as tumor growth inhibition in BDF1 male mice implanted with murine pancreatic adenocarcinoma (Panc 03) at dose schedule qd 4,6,8,10,12,14,16 administered iv; assay type: functional

Row | SMILES | EC50 (DNA topoisomerase II) [µM] | IC50 (P388) [µM] | further results
1 | COc1ccc(Cc2cn(C3CC3)c3c(F)c(-c4cc(C)nc(C)c4)c(F)cc3c2=O)cc1 | 14 | 21 | 
2 | Cc1cc(-c2c(F)cc3c(=O)c(Cc4cccc5ccccc45)cn(C4CC4)c3c2F)cc(C)n1 | > 210 |  | 
3 | Cc1cc(-c2c(F)cc3c(=O)c(Cc4c[nH]cn4)cn(C4CC4)c3c2F)cc(C)n1 | 1.6 | 0.39 | 
4 | Cc1cc(-c2c(F)cc3c(=O)c(Cc4ccccc4NC(=O)C(F)(F)F)cn(C4CC4)c3c2F)cc(C)n1 | 4.7 |  | 
5 | Cc1cc(-c2c(F)cc3c(=O)c(Cc4ccccc4O)cn(C4CC4)c3c2F)cc(C)n1 | 0.33 | 0.67 | T/C (Mus musculus [1]): 5%; MTD (Mus musculus [2]): 225 mg/kg
6 | Cc1cc(-c2c(F)cc3c(=O)c(Cc4cc(O)ccc4O)cn(C4CC4)c3c2F)cc(C)n1 | 0.16 | 0.36 | 
7 | Cc1cc(-c2c(F)cc3c(=O)ccn(C4CC4)c3c2F)cc(C)n1 |  |  | MTD (Mus musculus [3]): 2410 mg/kg; T/C (Mus musculus [4]): >100%
8 | Cc1cc(-c2c(F)cc3c(=O)c(Cc4c(O)cc(O)cc4O)cn(C4CC4)c3c2F)cc(C)n1 | 0.098 | 0.47 | 
9 | Cc1cc(-c2c(F)cc3c(=O)c(Cc4c(O)cccc4O)cn(C4CC4)c3c2F)cc(C)n1 | 0.096 | 0.25 | MTD (Mus musculus [5]): 12 mg/kg; T/C (Mus musculus [6]): 0%; EC50 (Nucleic Acid): 0.14 µM
10 | Cc1cc(-c2c(F)cc3c(=O)c(Cc4ccncc4)cn(C4CC4)c3c2F)cc(C)n1 | 9.1 |  | 
11 | Cc1cc(-c2c(F)cc3c(=O)c(Cc4ccc[nH]4)cn(C4CC4)c3c2F)cc(C)n1 | 5.1 | 0.93 | 
12 | Cc1cc(-c2c(F)cc3c(=O)c(Cc4ccccc4C(=O)O)cn(C4CC4)c3c2F)cc(C)n1 | 200 |  | 
13 | Cc1cc(-c2c(F)cc3c(=O)c(Cc4ccc(O)cc4)cn(C4CC4)c3c2F)cc(C)n1 | 1.2 | 1.5 | 
14 | Cc1cc(-c2c(F)cc3c(=O)c(Cc4ccccc4NS(C)(=O)=O)cn(C4CC4)c3c2F)cc(C)n1 | 3.3 |  | 
15 | Cc1cc(-c2c(F)cc3c(=O)c(Cc4ccc(N)cc4)cn(C4CC4)c3c2F)cc(C)n1 | 7.2 |  | 
16 | CC(=O)Nc1ccccc1Cc1cn(C2CC2)c2c(F)c(-c3cc(C)nc(C)c3)c(F)cc2c1=O | 5.1 |  | 
17 | Cc1cc(-c2c(F)cc3c(=O)c(Cc4ccc(N(C)C)cc4)cn(C4CC4)c3c2F)cc(C)n1 | > 210 |  | 

Row | SMILES | EC50 (DNA topoisomerase II) [µM] | IC50 (P388) [µM] | further results
18 | Cc1cc(-c2c(F)cc3c(=O)c(Cc4cccc(O)c4O)cn(C4CC4)c3c2F)cc(C)n1 | 0.36 | 0.88 | 
19 | Cc1cc(-c2c(F)cc3c(=O)c(-c4ccccc4)cn(C4CC4)c3c2F)cc(C)n1 | > 120 |  | 
20 | Cc1cc(-c2c(F)cc3c(=O)c(CC4CCCCC4)cn(C4CC4)c3c2F)cc(C)n1 | > 230 |  | 
21 | Cc1cc(-c2c(F)cc3c(=O)c(Cc4ccccc4N)cn(C4CC4)c3c2F)cc(C)n1 | 2.1 | 2.1 | 
22 | Cc1cc(-c2c(F)cc3c(=O)c(Cc4ccccn4)cn(C4CC4)c3c2F)cc(C)n1 | 12 |  | 
23 | COc1ccccc1Cc1cn(C2CC2)c2c(F)c(-c3cc(C)nc(C)c3)c(F)cc2c1=O | 14 | 37 | 
24 | Cc1cc(-c2c(F)cc3c(=O)c(Cc4ccc(Cl)cc4)cn(C4CC4)c3c2F)cc(C)n1 | 7.7 | 20 | 
25 | Cc1cc(-c2c(F)cc3c(=O)c(Cc4ccc(O)cc4O)cn(C4CC4)c3c2F)cc(C)n1 | 0.16 | 0.21 | T/C (Mus musculus [7]): 73%; MTD (Mus musculus [8]): 20 mg/kg
26 | Cc1cc(-c2c(F)cc3c(=O)c(Cc4cccc(O)c4)cn(C4CC4)c3c2F)cc(C)n1 | 1.1 | 2.2 | 
27 | COc1cccc(Cc2cn(C3CC3)c3c(F)c(-c4cc(C)nc(C)c4)c(F)cc3c2=O)c1 | 14 | 20 | 
28 | CC(=O)Nc1ccc(Cc2cn(C3CC3)c3c(F)c(-c4cc(C)nc(C)c4)c(F)cc3c2=O)cc1 | > 100 |  | 
29 | Cc1cc(-c2c(F)cc3c(=O)c(CCc4ccccc4)cn(C4CC4)c3c2F)cc(C)n1 | > 120 |  | 
30 | Cc1cc(-c2c(F)cc3c(=O)c(Cc4ncc[nH]4)cn(C4CC4)c3c2F)cc(C)n1 | 1.1 | 1.1 | T/C (Mus musculus [9]): 21%; MTD (Mus musculus [10]): 88 mg/kg
31 | Cc1cc(-c2c(F)cc3c(=O)c(Cc4ccccc4)cn(C4CC4)c3c2F)cc(C)n1 | 3.9 | 7.3 | MTD (Mus musculus [11]): 3749 mg/kg; T/C (Mus musculus [12]): >100%
32 | COc1cc(NS(C)(=O)=O)ccc1Nc1c2ccccc2nc2ccccc12 [AMSACRINE] |  |  | T/C (Mus musculus [13]): 0%; MTD (Mus musculus [14]): 48 mg/kg
33 | COc1cc([C@@H]2c3cc4c(cc3[C@@H](O[C@@H]3O[C@@H]5CO[C@@H](C)O[C@H]5[C@H](O)[C@H]3O)[C@H]3COC(=O)[C@H]23)OCO4)cc(OC)c1O [ETOPOSIDE] |  |  | MTD (Mus musculus [15]): 96 mg/kg; T/C (Mus musculus [16]): 3%
34 | Cc1cc(-c2c(F)cc3c(=O)c(C(=O)O)cn(C4CC4)c3c2F)cc(C)n1 [WIN-57294] |  |  | MTD (Mus musculus [11]): 600 mg/kg; T/C (Mus musculus [12]): 31%
